Columns and labels:
COLO 205 [1] = assay: Antiproliferative activity against human COLO 205 cells assessed as reduction in cell viability for 72 hrs by cell titre glo luminescence assay; format: functional, cell-based
[2] = target: Mitogen-activated protein kinase 1 (Homo sapiens, UniProt P28482); assay: Inhibition of ERK2 (unknown origin) measured after 2 hr by ADP-glo assay
[3] = AUC in tumor of BALB/c mouse xenografted with human COLO 205 cells at 50 mg/kg, po for 14 days; format: ADME, organism-based, Neoplasm; design: dose 50 mg/kg, time 14 day
[4] = Cmax in plasma of BALB/c mouse xenografted with human COLO 205 cells at 50 mg/kg, po for 14 days; format: ADME, organism-based; design: route oral, dose 50 mg/kg, time 14 day
[5] = AUC in plasma of BALB/c mouse xenografted with human COLO 205 cells at 50 mg/kg, po for 14 days; format: ADME, organism-based; design: time 14 day, dose 50 mg/kg
[6] = Ratio of AUC in tumor to plasma of BALB/c mouse xenografted with human COLO 205 cells at 50 mg/kg, po for 14 days; format: ADME, organism-based; details: tumor and plasma, time 14 day, read-out: Ratio AUC
COLO 205 [7] = assay: Antitumor activity against human COLO 205 cells xenografted in BALB/c nude mouse assessed as TGI at 50 mg/kg, po measured after 14 days; format: functional; details: COLO 205, po, 336 h, time 14 day, read-out: TGI
[8] = Cmax in tumor of BALB/c mouse xenografted with human COLO 205 cells at 50 mg/kg, po for 14 days; format: ADME, organism-based, Neoplasm; design: route oral, dose 50 mg/kg, time 14 day
Cytochrome P450 2C9 = Cytochrome P450 2C9 (Homo sapiens, UniProt P11712); assay: Inhibition of CYP2C9 in human liver microsomes
Cytochrome P450 3A4 = Cytochrome P450 3A4 (Homo sapiens, UniProt P08684); assay: Inhibition of CYP3A4 in human liver microsomes
Cytochrome P450 2C19 = Cytochrome P450 2C19 (Homo sapiens, UniProt P33261); assay: Inhibition of CYP2C19 in human liver microsomes
Cytochrome P450 2D6 = Cytochrome P450 2D6 (Homo sapiens, UniProt P10635); assay: Inhibition of CYP2D6 in human liver microsomes
Cytochrome P450 1A2 = target: T1, Cytochrome P450 1A2 (Homo sapiens, UniProt P05177); assay: Inhibition of CYP1A2 in human liver microsomes
T1 sequence (P05177 whole entry): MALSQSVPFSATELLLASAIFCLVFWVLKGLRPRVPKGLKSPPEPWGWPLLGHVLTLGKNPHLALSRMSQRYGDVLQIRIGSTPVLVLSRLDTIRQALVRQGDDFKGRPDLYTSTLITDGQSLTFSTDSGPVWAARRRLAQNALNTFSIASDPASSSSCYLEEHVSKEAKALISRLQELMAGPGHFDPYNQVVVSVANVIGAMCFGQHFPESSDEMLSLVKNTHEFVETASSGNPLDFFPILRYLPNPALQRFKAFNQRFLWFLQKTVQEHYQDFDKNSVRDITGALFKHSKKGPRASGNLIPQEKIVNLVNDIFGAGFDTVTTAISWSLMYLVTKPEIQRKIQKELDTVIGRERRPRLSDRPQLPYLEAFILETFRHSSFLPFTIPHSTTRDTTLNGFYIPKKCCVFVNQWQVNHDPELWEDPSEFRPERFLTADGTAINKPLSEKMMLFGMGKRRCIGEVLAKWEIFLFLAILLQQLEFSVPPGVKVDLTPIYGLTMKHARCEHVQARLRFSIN

[9] = AUC (0 to t) in Sprague-Dawley rat at 2 mg/kg, po; format: ADME, organism-based; design: dose 2 mg/kg; details: in vivo
[10] = Cmax in Beagle dog plasma at 0.5 mg/kg, iv and measured after 24 hrs by LC/MS/MS analysis; format: ADME, organism-based, Canis lupus familiaris; design: route intravenous, time 24 hrs, dose 0.5 mg/kg
[11] = Clearance in ICR mouse plasma at 1 mg/kg, iv and measured after 24 hrs by LC/MS/MS analysis mg/kg, iv; format: ADME, organism-based
[12] = Half life in Beagle dog at 2 mg/kg, po; details: in vivo
[13] = AUC in tumor of BALB/c mouse xenografted with human COLO 205 cells at 25 mg/kg, po for 14 days; format: ADME, organism-based, Neoplasm; design: time 14 day, dose 25 mg/kg
[14] = AUC in plasma of BALB/c mouse xenografted with human COLO 205 cells at 25 mg/kg, po for 14 days; format: ADME, organism-based; design: time 14 day, dose 25 mg/kg
[15] = target: Cyclin-dependent kinase 2 (Homo sapiens, UniProt P24941); assay: Inhibition of CDK2 (unknown origin)
[16] = Clearance in Beagle dog plasma at 0.5 mg/kg, iv and measured after 24 hrs by LC/MS/MS analysis; format: ADME, organism-based, Canis lupus familiaris
[17] = Cmax in tumor of BALB/c mouse xenografted with human COLO 205 cells at 25 mg/kg, po for 14 days; format: ADME, organism-based, Neoplasm; design: route oral, dose 25 mg/kg, time 14 day
[18] = Plasma protein binding in human; format: ADME, cell-free; details: read-out: PPB (converted)
[19] = Oral bioavailability in Beagle dog at 2 mg/kg; format: ADME, organism-based, Canis lupus familiaris; details: in vivo
[20] = target: Glycogen synthase kinase-3 beta (Homo sapiens, UniProt P49841); assay: Inhibition of GSK3beta (unknown origin)
[21] = Cmax in plasma of BALB/c mouse xenografted with human COLO 205 cells at 25 mg/kg, po for 14 days; format: ADME, organism-based; design: route oral, dose 25 mg/kg, time 14 day
[22] = Oral bioavailability in ICR mouse at 2 mg/kg; format: ADME, organism-based; details: in vivo
in vivo = details: BALB/c, mouse, tumour, po, 25 mg/kg
Description: Ratio of AUC in tumor to plasma of BALB/c mouse xenografted with human COLO 205 cells at 25 mg/kg, po for 14 days

[23] = AUC (0 to t) in ICR mouse at 2 mg/kg, po; format: ADME, organism-based; design: dose 2 mg/kg; details: in vivo
[24] = Oral bioavailability in Sprague-Dawley rat at 2 mg/kg; format: ADME, organism-based; details: in vivo
COLO 205 [25] = assay: Antitumor activity against human COLO 205 cells xenografted in BALB/c nude mouse assessed as TGI at 25 mg/kg, po measured after 14 days; format: functional; details: COLO 205, po, 336 h, time 14 day, read-out: TGI
[26] = Cmax in Sprague-Dawley rat plasma at 1 mg/kg, iv and measured after 24 hrs by LC/MS/MS analysis; format: ADME, organism-based; design: route intravenous, dose 1 mg/kg, time 24 hrs
[27] = Half life in Sprague-Dawley rat at 2 mg/kg, po; details: in vivo
[28] = AUC (0 to t) in Beagle dog at 2 mg/kg, po; format: ADME, organism-based, Canis lupus familiaris; design: dose 2 mg/kg; details: in vivo
[29] = Clearance in Sprague-Dawley rat plasma at 1 mg/kg, iv and measured after 24 hrs by LC/MS/MS analysis; format: ADME, organism-based
[30] = Cmax in ICR mouse plasma at 1 mg/kg, iv and measured after 24 hrs by LC/MS/MS analysis; format: ADME, organism-based; design: route intravenous, dose 1 mg/kg, time 24 hrs
[31] = Half life in ICR mouse at 2 mg/kg, po; details: in vivo
[32] = Homo sapiens, COLO 205, 72 h, read-out: IC50

Mitogen-activated protein kinase 1, sequence (P28482 whole entry): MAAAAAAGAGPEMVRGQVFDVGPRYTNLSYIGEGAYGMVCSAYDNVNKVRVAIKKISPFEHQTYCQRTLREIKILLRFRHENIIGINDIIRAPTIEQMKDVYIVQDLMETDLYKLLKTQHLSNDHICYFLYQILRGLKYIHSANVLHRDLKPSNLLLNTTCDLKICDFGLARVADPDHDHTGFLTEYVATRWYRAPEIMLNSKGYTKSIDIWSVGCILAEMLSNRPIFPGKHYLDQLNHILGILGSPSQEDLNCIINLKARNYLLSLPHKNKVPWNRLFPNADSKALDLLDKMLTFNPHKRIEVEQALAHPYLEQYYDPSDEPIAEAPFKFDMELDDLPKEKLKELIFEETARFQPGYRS
Glycogen synthase kinase-3 beta, sequence (P49841 whole entry): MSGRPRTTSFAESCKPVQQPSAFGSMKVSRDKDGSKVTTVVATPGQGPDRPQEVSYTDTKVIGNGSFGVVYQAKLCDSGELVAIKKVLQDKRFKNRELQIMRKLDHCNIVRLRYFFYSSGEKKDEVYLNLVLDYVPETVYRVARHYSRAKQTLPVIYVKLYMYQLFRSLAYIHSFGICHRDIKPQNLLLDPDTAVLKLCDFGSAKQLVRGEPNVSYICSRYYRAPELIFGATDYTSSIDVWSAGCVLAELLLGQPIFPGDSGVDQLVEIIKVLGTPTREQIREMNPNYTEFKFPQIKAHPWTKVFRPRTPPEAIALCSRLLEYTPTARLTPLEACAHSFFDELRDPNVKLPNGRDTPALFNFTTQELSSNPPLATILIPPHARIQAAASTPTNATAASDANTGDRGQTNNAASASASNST
Cytochrome P450 2C9, sequence (P11712 whole entry): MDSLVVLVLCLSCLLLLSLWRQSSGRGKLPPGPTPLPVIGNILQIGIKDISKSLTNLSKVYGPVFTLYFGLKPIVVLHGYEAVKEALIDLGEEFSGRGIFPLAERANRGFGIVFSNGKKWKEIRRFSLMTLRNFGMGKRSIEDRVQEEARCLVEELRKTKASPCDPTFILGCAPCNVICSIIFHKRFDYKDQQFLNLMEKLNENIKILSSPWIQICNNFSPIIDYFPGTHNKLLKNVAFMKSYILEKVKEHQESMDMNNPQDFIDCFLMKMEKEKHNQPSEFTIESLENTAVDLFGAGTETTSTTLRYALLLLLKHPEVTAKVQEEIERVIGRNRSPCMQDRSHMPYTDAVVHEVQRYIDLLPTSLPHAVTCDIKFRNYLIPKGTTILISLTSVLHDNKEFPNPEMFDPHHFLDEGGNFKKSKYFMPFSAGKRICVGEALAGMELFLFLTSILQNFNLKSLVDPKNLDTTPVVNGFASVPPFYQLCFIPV
Cytochrome P450 3A4, sequence (P08684 whole entry): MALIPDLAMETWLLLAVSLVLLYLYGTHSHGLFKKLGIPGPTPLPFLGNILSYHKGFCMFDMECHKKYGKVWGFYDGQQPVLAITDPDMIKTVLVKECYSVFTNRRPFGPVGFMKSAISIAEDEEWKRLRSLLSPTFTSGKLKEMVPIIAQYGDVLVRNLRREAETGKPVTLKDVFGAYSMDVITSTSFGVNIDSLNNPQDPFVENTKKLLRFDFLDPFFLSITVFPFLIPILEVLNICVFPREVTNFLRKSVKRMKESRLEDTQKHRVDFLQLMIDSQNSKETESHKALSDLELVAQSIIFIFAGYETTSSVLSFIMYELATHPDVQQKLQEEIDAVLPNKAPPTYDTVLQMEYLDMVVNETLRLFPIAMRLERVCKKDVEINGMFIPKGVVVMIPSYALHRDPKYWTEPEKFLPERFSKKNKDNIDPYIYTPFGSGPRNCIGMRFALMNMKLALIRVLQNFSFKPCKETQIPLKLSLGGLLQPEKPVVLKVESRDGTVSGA
Cytochrome P450 2D6, sequence (P10635 whole entry): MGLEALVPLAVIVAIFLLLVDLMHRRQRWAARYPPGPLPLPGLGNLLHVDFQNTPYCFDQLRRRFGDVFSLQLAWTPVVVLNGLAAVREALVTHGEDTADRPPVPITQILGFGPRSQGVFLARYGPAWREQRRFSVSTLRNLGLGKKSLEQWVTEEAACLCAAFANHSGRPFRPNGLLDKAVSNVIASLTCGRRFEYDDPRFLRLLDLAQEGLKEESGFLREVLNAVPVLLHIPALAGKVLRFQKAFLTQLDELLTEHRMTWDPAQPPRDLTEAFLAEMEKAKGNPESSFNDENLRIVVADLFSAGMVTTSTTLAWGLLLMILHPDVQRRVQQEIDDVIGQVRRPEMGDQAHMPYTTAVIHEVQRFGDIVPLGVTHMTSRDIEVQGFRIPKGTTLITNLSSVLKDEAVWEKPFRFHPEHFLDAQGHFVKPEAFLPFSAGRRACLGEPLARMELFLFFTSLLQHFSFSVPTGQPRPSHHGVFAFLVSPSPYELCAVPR
Cytochrome P450 2C19, sequence (P33261 whole entry): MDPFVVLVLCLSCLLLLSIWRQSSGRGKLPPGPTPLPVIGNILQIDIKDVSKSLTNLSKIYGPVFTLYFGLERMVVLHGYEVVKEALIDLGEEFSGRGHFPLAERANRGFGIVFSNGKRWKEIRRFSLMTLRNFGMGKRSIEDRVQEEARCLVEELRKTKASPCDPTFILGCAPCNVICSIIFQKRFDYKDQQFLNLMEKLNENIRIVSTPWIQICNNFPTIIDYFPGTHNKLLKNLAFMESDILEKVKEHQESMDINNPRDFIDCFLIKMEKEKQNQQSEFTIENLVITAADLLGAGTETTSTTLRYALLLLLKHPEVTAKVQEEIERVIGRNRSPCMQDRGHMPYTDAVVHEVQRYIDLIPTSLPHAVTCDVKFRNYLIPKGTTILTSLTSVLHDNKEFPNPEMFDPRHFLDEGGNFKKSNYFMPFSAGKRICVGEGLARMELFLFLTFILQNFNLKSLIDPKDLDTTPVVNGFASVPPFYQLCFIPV

O=C1N([C@H](CO)c2cccc(Cl)c2)Cc2cc(-c3nc(NC4CCOCC4)ncc3Cl)cn21
IC50 (COLO 205 [1]; [32]): 104 nM | IC50 [2]: 5.8 nM

CC(C)Nc1cc(-c2c[nH]c(C(=O)N[C@H](CO)c3cccc(Cl)c3)c2)c(Cl)cn1 [ULIXERTINIB]
AUC at 336 h [3]: 48800 ng·h/mL | Cmax [4]: 32300 ng/mL | AUC at 336 h [5]: 114000 ng·h/mL | Kp at 336 h [6]: 0.43 | IC50 (COLO 205 [1]; [32]): 103 nM | inhibition in vivo at 50 mg/kg (COLO 205 [7]): 63% | Cmax [8]: 13000 ng/mL

Cc1cnc(Nc2ccnn2C)nc1N1Cc2nn(C(CO)c3cccc(Cl)c3)c(C)c2C1 (racemic)
IC50 (COLO 205 [1]; [32]): 964 nM | IC50 [2]: 99 nM

Cc1cnc(Nc2ccnn2C)nc1-c1cc2n(c1)C(=O)N([C@H](CN)c1cccc(Cl)c1)C2
IC50 (COLO 205 [1]; colo 205): Not Active | IC50 [2]: 18.3 nM

Cn1nccc1Nc1nccc(-c2cn3c(n2)CN([C@H](CO)c2cccc(Cl)c2)C3=O)n1
IC50 (COLO 205 [1]; colo 205): Not Active | IC50 [2]: 4200 nM

Cn1nccc1Nc1nccc(N2CC[C@H](C(=O)N[C@H](CO)c3cccc(Cl)c3)C2)n1
IC50 (COLO 205 [1]; [32]): > 10000 nM | IC50 [2]: 201 nM

Cn1nccc1Nc1ncc(Cl)c(-c2cc3n(c2)C(=O)N([C@H](CO)c2cccc(Cl)c2)C3)n1
IC50 (Cytochrome P450 2C9): > 5000 nM | IC50 (Cytochrome P450 3A4): > 5000 nM | IC50 (Cytochrome P450 2C19): > 5000 nM | IC50 (COLO 205 [1]; [32]): 31.9 nM | IC50 (Cytochrome P450 2D6): 350 nM | IC50 (Cytochrome P450 1A2): > 5000 nM

Cc1cnc(Nc2ccnn2C)nc1-c1ccc2c(c1)CN([C@H](CO)c1cccc(Cl)c1)C2=O
IC50 (COLO 205 [1]; colo 205): Not Active | IC50 [2]: 4830 nM

Cc1cnc(Nc2ccnn2C)nc1-c1cc2n(c1)C(=O)N([C@H](CO)c1cccc(Cl)c1)C2
AUC(0-t) [9]: 726 ng·h/mL | Cmax [10]: 526 ng/mL | clearance [11]: 12.2 mL/min/kg | half-life [12]: 3.2 h | AUC at 336 h [13]: 30300 ng·h/mL | AUC at 336 h [14]: 21400 ng·h/mL | IC50 [15]: 99.4 nM | clearance [16]: 10.5 mL/min/kg | Cmax [17]: 9460 ng/mL | fraction unbound [18]: 0.016 | IC50 (COLO 205 [1]; [32]): 44.6 nM | bioavailability [19]: 101% | IC50 [20]: 64.3 nM | Cmax [21]: 5150 ng/mL | bioavailability [22]: 90.8% | Kp at 336 h (in vivo): 1.42 | AUC(0-t) [23]: 2460 ng·h/mL | bioavailability [24]: 45.8% | inhibition in vivo at 25 mg/kg (COLO 205 [25]): 112% | Cmax [26]: 219 ng/mL | half-life [27]: 2.1 h | AUC(0-t) [28]: 3270 ng·h/mL | clearance [29]: 25.3 mL/min/kg

CNC[C@H](c1cccc(Cl)c1)N1Cc2cc(-c3nc(Nc4ccnn4C)ncc3C)cn2C1=O
IC50 (COLO 205 [1]; [32]): 94.5 nM | IC50 [2]: 1.5 nM

Cc1cnc(Nc2ccnn2C)nc1-c1cc2n(c1)C(=O)N([C@H](CO)c1cccc(Cl)c1)CC2
AUC(0-t) [9]: 258 ng·h/mL | clearance [11]: 63.1 mL/min/kg | Cmax [30]: 275 ng/mL | IC50 (COLO 205 [1]; [32]): 77.1 nM | bioavailability [22]: 54% | half-life [31]: 0.82 h | AUC(0-t) [23]: 277 ng·h/mL | bioavailability [24]: 29.4% | Cmax [26]: 84.3 ng/mL | half-life [27]: 1.6 h | clearance [29]: 38.5 mL/min/kg

COc1cc(F)cc([C@@H](CO)N2Cc3cc(-c4nc(Nc5ccnn5C)ncc4C)cn3C2=O)c1
IC50 (COLO 205 [1]; [32]): 89.6 nM | IC50 [2]: 2.4 nM

Source: ChEMBL document CHEMBL5046322, “Discovery of SHR2415, a Novel Pyrrole-Fused Urea Scaffold ERK1/2 Inhibitor” (ACS Med Chem Lett, 2022)
